Measured values from the supplement of paper PMC11451515.

What was measured:
Test in all cases: AUC of viability dose-response curve (% viability x log10 dose units); higher = less sensitive
Settings in all cases: 48 h
[1] = system: P12-Ichikawa
Method in brief: (§1)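 Leukemia cells adapted to each medium were seeded at 500 or 1000 cells/well in 1536-well plates and dosed with library compounds in DMSO at 11 threefold doses from 47 μM to 0.79 nM for 48 h at 37°C. CellTiter-Glo One luminescence was normalised per plate to DMSO and cell-free wells, then fitted with a four-parameter log-logistic model over log10 doses. Area under the curve was taken from this fit by the trapezoidal rule, with curves above full viability scaled and curves failing quality control removed.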

[2] = system: NOMO1
Method in brief: as §1

[3] = system: SEM cells
Method in brief: as §1

[4] = RPMI 5 mM glucose + 10% dialyzed FBS

## CCCCCCCCCCCC(CC1OC(=O)C1CCCCCC)OC(=O)C(CC(C)C)NC=O (stereo not drawn)
[1]; HPLM + 10% dialyzed FBS
  AUC of viability dose-response curve: 443
[1]; RPMI 5 mM glucose + 10% FBS
  AUC of viability dose-response curve: 440
[1]; [4]
  AUC of viability dose-response curve: 443
[2]; HPLM + 10% dialyzed FBS
  AUC of viability dose-response curve: 452
[2]; RPMI 5 mM glucose + 10% FBS
  AUC of viability dose-response curve: 461
[2]; [4]
  AUC of viability dose-response curve: 456
[3]; HPLM + 10% dialyzed FBS
  AUC of viability dose-response curve: 407
[3]; RPMI 5 mM glucose + 10% FBS
  AUC of viability dose-response curve: 343
[3]; [4]
  AUC of viability dose-response curve: 391

## Cc1ccc(NC(=O)c2ccc(CN3CCN(C)CC3)cc2)cc1Nc1nccc(-c2cccnc2)n1
[1]; HPLM + 10% dialyzed FBS
  AUC of viability dose-response curve: 460
[1]; RPMI 5 mM glucose + 10% FBS
  AUC of viability dose-response curve: 470
[1]; [4]
  AUC of viability dose-response curve: 477
[2]; HPLM + 10% dialyzed FBS
  AUC of viability dose-response curve: 477
[2]; RPMI 5 mM glucose + 10% FBS
  AUC of viability dose-response curve: 459
[2]; [4]
  AUC of viability dose-response curve: 454
[3]; HPLM + 10% dialyzed FBS
  AUC of viability dose-response curve: 465
[3]; RPMI 5 mM glucose + 10% FBS
  AUC of viability dose-response curve: 468
[3]; [4]
  AUC of viability dose-response curve: 467

## CSC1=CC(=CC=C1)NC2=NC3=C(C=N2)/C=C(C(=O)N3C)/C4=C(Cl)C=CC=C4Cl
[1]; HPLM + 10% dialyzed FBS
  AUC of viability dose-response curve: 476
[1]; RPMI 5 mM glucose + 10% FBS
  AUC of viability dose-response curve: 469
[1]; [4]
  AUC of viability dose-response curve: 464
[2]; HPLM + 10% dialyzed FBS
  AUC of viability dose-response curve: 467
[2]; RPMI 5 mM glucose + 10% FBS
  AUC of viability dose-response curve: 467
[2]; [4]
  AUC of viability dose-response curve: 460
[3]; HPLM + 10% dialyzed FBS
  AUC of viability dose-response curve: 417
[3]; RPMI 5 mM glucose + 10% FBS
  AUC of viability dose-response curve: 455
[3]; [4]
  AUC of viability dose-response curve: 407

## ClC1=CC=C(CCCOC/2=N/NC(=O)C(=C2NCC3=CN=CC=C3)/Br)C=C1
[1]; HPLM + 10% dialyzed FBS
  AUC of viability dose-response curve: 387
[1]; RPMI 5 mM glucose + 10% FBS
  AUC of viability dose-response curve: 430
[1]; [4]
  AUC of viability dose-response curve: 382
[2]; HPLM + 10% dialyzed FBS
  AUC of viability dose-response curve: 344
[2]; RPMI 5 mM glucose + 10% FBS
  AUC of viability dose-response curve: 390
[2]; [4]
  AUC of viability dose-response curve: 392
[3]; HPLM + 10% dialyzed FBS
  AUC of viability dose-response curve: 323
[3]; RPMI 5 mM glucose + 10% FBS
  AUC of viability dose-response curve: 358
[3]; [4]
  AUC of viability dose-response curve: 391

## COc1nc(-c2ccc3c(c2)OCO3)n(-c2ccc(NC(=O)CSc3ccccc3)cc2)n1
[1]; HPLM + 10% dialyzed FBS
  AUC of viability dose-response curve: 470
[1]; RPMI 5 mM glucose + 10% FBS
  AUC of viability dose-response curve: 454
[1]; [4]
  AUC of viability dose-response curve: 428
[2]; HPLM + 10% dialyzed FBS
  AUC of viability dose-response curve: 440
[2]; RPMI 5 mM glucose + 10% FBS
  AUC of viability dose-response curve: 449
[2]; [4]
  AUC of viability dose-response curve: 455
[3]; HPLM + 10% dialyzed FBS
  AUC of viability dose-response curve: 457
[3]; RPMI 5 mM glucose + 10% FBS
  AUC of viability dose-response curve: 443
[3]; [4]
  AUC of viability dose-response curve: 453

## COc1cc(N2CCC(O)CC2)ccc1Nc1cc(Nc2ccccc2[S+](=O)([O-])C(C)C)c2cc[nH]c2n1
[1]; HPLM + 10% dialyzed FBS
  AUC of viability dose-response curve: 411
[1]; RPMI 5 mM glucose + 10% FBS
  AUC of viability dose-response curve: 392
[1]; [4]
  AUC of viability dose-response curve: 400
[2]; HPLM + 10% dialyzed FBS
  AUC of viability dose-response curve: 331
[2]; RPMI 5 mM glucose + 10% FBS
  AUC of viability dose-response curve: 414
[2]; [4]
  AUC of viability dose-response curve: 404

## O=C1Nc2ccccc2/C1=C1\Nc2ccccc2C1=O
[1]; HPLM + 10% dialyzed FBS
  AUC of viability dose-response curve: 459
[1]; RPMI 5 mM glucose + 10% FBS
  AUC of viability dose-response curve: 467
[1]; [4]
  AUC of viability dose-response curve: 471
[2]; HPLM + 10% dialyzed FBS
  AUC of viability dose-response curve: 448
[2]; RPMI 5 mM glucose + 10% FBS
  AUC of viability dose-response curve: 447
[2]; [4]
  AUC of viability dose-response curve: 442

## CC/1=C/N([C@@H]2C[C@@H](O)[C@H](CO)O2)C(=O)NC1=O
[1]; HPLM + 10% dialyzed FBS
  AUC of viability dose-response curve: 388
[1]; RPMI 5 mM glucose + 10% FBS
  AUC of viability dose-response curve: 353
[1]; [4]
  AUC of viability dose-response curve: 338
[2]; HPLM + 10% dialyzed FBS
  AUC of viability dose-response curve: 453
[2]; RPMI 5 mM glucose + 10% FBS
  AUC of viability dose-response curve: 408
[2]; [4]
  AUC of viability dose-response curve: 413

## COc1cc2c(N3CCN(C(=O)Nc4ccc(OC(C)C)cc4)CC3)ncnc2cc1OCCCN1CCCCC1
[1]; HPLM + 10% dialyzed FBS
  AUC of viability dose-response curve: 406
[1]; RPMI 5 mM glucose + 10% FBS
  AUC of viability dose-response curve: 360
[1]; [4]
  AUC of viability dose-response curve: 369
[2]; HPLM + 10% dialyzed FBS
  AUC of viability dose-response curve: 395
[2]; RPMI 5 mM glucose + 10% FBS
  AUC of viability dose-response curve: 357
[2]; [4]
  AUC of viability dose-response curve: 371

## COc1cc2nccc(Oc3ccc(NC(=O)Nc4cc(C)on4)c(Cl)c3)c2cc1OC
[1]; HPLM + 10% dialyzed FBS
  AUC of viability dose-response curve: 458
[1]; RPMI 5 mM glucose + 10% FBS
  AUC of viability dose-response curve: 453
[1]; [4]
  AUC of viability dose-response curve: 455
[2]; HPLM + 10% dialyzed FBS
  AUC of viability dose-response curve: 471
[2]; RPMI 5 mM glucose + 10% FBS
  AUC of viability dose-response curve: 449
[2]; [4]
  AUC of viability dose-response curve: 467

## COc1cc2nccc(Oc3ccc(NC(=O)Nc4ccc(F)cc4F)c(F)c3)c2cc1OC
[1]; HPLM + 10% dialyzed FBS
  AUC of viability dose-response curve: 419
[1]; RPMI 5 mM glucose + 10% FBS
  AUC of viability dose-response curve: 401
[1]; [4]
  AUC of viability dose-response curve: 395
[2]; HPLM + 10% dialyzed FBS
  AUC of viability dose-response curve: 413
[2]; RPMI 5 mM glucose + 10% FBS
  AUC of viability dose-response curve: 414
[2]; [4]
  AUC of viability dose-response curve: 429

## C=C(C)[C@@H]1CC[C@]2(C)CC[C@]3(C)[C@H](CC[C@@H]4[C@@]5(C)CC[C@H](O)C(C)(C)[C@@H]5CC[C@]43C)[C@@H]12
[1]; HPLM + 10% dialyzed FBS
  AUC of viability dose-response curve: 458
[1]; RPMI 5 mM glucose + 10% FBS
  AUC of viability dose-response curve: 467
[1]; [4]
  AUC of viability dose-response curve: 459
[2]; HPLM + 10% dialyzed FBS
  AUC of viability dose-response curve: 444
[2]; RPMI 5 mM glucose + 10% FBS
  AUC of viability dose-response curve: 466
[2]; [4]
  AUC of viability dose-response curve: 446

## Cc1nc(Nc2ncc(C(=O)Nc3c(C)cccc3Cl)s2)cc(N2CCN(CCO)CC2)n1
[1]; HPLM + 10% dialyzed FBS
  AUC of viability dose-response curve: 358
[1]; RPMI 5 mM glucose + 10% FBS
  AUC of viability dose-response curve: 396
[1]; [4]
  AUC of viability dose-response curve: 398
[2]; HPLM + 10% dialyzed FBS
  AUC of viability dose-response curve: 448
[2]; RPMI 5 mM glucose + 10% FBS
  AUC of viability dose-response curve: 461
[2]; [4]
  AUC of viability dose-response curve: 447
